Test results published in patent publication US20140350049A1, “METHODS AND PHARMACEUTICAL COMPOSITIONS FOR THE TREATMENT OF DARIER DISEASE” (INSERM (INSTITUT NATIONAL DE LA SANTE ET DE LA RECHERCHE …, priority 2011, published 2014).

How the values were obtained:
Format in all cases: cell-based, human
[1] = tested on: Darier keratinocytes (DK); assay: ER stress response (eIF2α and IRE1 phosphorylation, Western-Blot) in Darier keratinocytes; conditions: for TG-induced eIF2α phosphorylation: DK pre-treated 24 h with PBA 5 mM or Miglustat 500 μM
Procedure: (§1) Cell Culture. Keratinocytes were grown in 0.06 mM CaCl2 EpiLife medium (Invitrogen) to 60-80% confluence and then incubated in 1.2 mM CaCl2 EpiLife medium for 4 hours to induce formation of cell-cell contacts.
(§2) Treatments with drugs. For ER stress induction, keratinocytes grown in high Ca^2+ (1.2 mM) medium were incubated with thapsigargin (TG, Sigma) at 1 μM for different time periods. For inhibition of SERCA pump in NK, keratinocytes were pretreated with 100 nM of TG for 30 min in low Ca^2+ (0.06 mM) medium. Medium was removed, and cells were incubated in high Ca^2+ (1.2 mM) medium for an additional 4 hours to induce the formation of cell-cell contacts.
(§3) Western-Blot. Keratinocytes were lysed in buffer containing 50 mM Tris (pH8), 120 mM NaCl, 0.5% NP-40, Complete™ protease inhibitors cocktail (Roche) and phosphatase inhibitor cocktail 2 (Sigma) for 30 minutes on ice and pelleted by centrifugation. The supernatant was collected for the quantification of protein amount by the Bradford assay. Equal amounts of soluble protein were added to Laemmli buffer (62.5 mM Tris HCl, pH 6.8, 5% ®-mercaptoethanol, 2% SDS, 10% glycerol, and 0.002% bromophenol blue). Samples were separated by SDS-PAGE and transferred onto Hybond-C extra membrane (GE Healthcare). β-actin immunodetection was used as a loading control. Blots were developed by chemiluminescence (ECL Advance, GE Healthcare or SuperSignal West Dura, Pierce).

[2] = tested on: Darier keratinocytes (DK); assay: Adherens junction formation in chaperone-treated Darier keratinocytes (immunofluorescence); conditions: for F-actin network organisation / cell shape (polygonal phenotype, characteristic of cell-to-cell adhesion) / staining of AJ components (E-cadherin and catenins) at the plasma membrane: DK pre-treated 24 h with PBA 5 mM or Miglustat 500 μM; for staining of AJ components (E-cadherin and catenins) at the plasma membrane: then 1.2 mM Ca2+
Procedure: (§4) Cell Culture. Keratinocytes were grown in 0.06 mM CaCl2 EpiLife medium (Invitrogen) to 60-80% confluence and then incubated in 1.2 mM CaCl2 EpiLife medium for 4 hours to induce formation of cell-cell contacts. […] Treatments with drugs. For ER stress induction, keratinocytes grown in high Ca^2+ (1.2 mM) medium were incubated with thapsigargin (TG, Sigma) at 1 μM for different time periods. For inhibition of SERCA pump in NK, keratinocytes were pretreated with 100 nM of TG for 30 min in low Ca^2+ (0.06 mM) medium. Medium was removed, and cells were incubated in high Ca^2+ (1.2 mM) medium for an additional 4 hours to induce the formation of cell-cell contacts. […] Immunofluorescence. Keratinocytes were cultured on coverslips, fixed with 4% paraformaldehyde for 30 minutes at room temperature, and permeabilized with 0.2% TritonX-100 in PBS for 10 minutes. After blocking with 1% fetal bovine serum in PBS, cells were incubated with primary antibodies at 4° C. overnight. Subsequently, cells were incubated with the appropriate Alexa-conjugated secondary antibody at room temperature for 1 hour. For actin staining, cells were incubated with phalloidin-TRITC at room temperature for 1 hour. Lastly, coverslips were mounted on glass slides using Vectashield Hard set (Vector laboratories) and examined using a Zeiss LSM 710 confocal microscope with a 40 Plan-Apochromat objective (1.3 oil) or a 63 Plan-Apochromat objective (1.4 oil), together with a 2× zoom.

[3] = tested on: Darier keratinocytes (DK); assay: E-cadherin and SERCA2 expression in chaperone-treated Darier keratinocytes; conditions: DK treated with PBA or Miglustat
Procedure: as §3, with “Treatments with drugs. For ER stress induction, keratinocytes grown in high Ca^2+ (1.2 mM) medium were incubated with thapsigargin (TG, Sigma) at 1 μM for different time periods. For inhibition of SERCA pump in NK, keratinocytes were pretreated with 100 nM of TG for 30 min in low Ca^2+ (0.06 mM) medium. Medium was removed, and cells were incubated in high Ca^2+ (1.2 mM) medium for an additional 4 hours to induce the formation of cell-cell contacts. […] Western-Blot.” for “Western-Blot.”

[4] = tested on: Darier keratinocytes (DK); assay: ER morphology in chaperone-treated Darier keratinocytes (immunofluorescence); conditions: DK pre-treated 24 h with PBA 5 mM or Miglustat 500 μM
Procedure: as §2
(§5) Immunofluorescence. Keratinocytes were cultured on coverslips, fixed with 4% paraformaldehyde for 30 minutes at room temperature, and permeabilized with 0.2% TritonX-100 in PBS for 10 minutes. After blocking with 1% fetal bovine serum in PBS, cells were incubated with primary antibodies at 4° C. overnight. Subsequently, cells were incubated with the appropriate Alexa-conjugated secondary antibody at room temperature for 1 hour. […]
(§6) Quantification of intracellular compartment volumes and co-localization. For volume quantifications, all Z-series reconstructions were imaged with a pinhole of 1 Airy Unit with an optimal Z-step. […] Each isosurfaced was selected and the volume statistic recorded. Quantification of the co-localization signals was performed using the Metamorph (Molecular Devices) software. In a single optical section, the surface of the red signal (E-cadherin) that merges with a green signal (Calnexin) was calculated.

[5] = tested on: Darier keratinocytes (DK); assay: XBP1 mRNA splicing (RT-PCR) after TG treatment; conditions: DK compared to NK, TG 1 μM
Procedure: as §2
RT-PCR. RNA was isolated from keratinocytes using TRIzol (Invitrogen) and reverse transcribed using hexamer primers and Moloney murine leukemia virus RT. PCR amplification was performed.

[6] = tested on: normal keratinocytes (NK); assay: Adherens junction formation in TG-pretreated normal keratinocytes (immunofluorescence); conditions: TG-pretreated NK (100 nM, 30 min) cultured in 1.2 mM Ca2+ for 4 hours
Procedure: as §4, with “Lastly, coverslips were mounted on glass slides using Vectashield Hard set (Vector laboratories) and examined using a Zeiss LSM 710 confocal microscope with a 40 Plan-Apochromat objective (1.3 oil) or a 63 Plan-Apochromat objective (1.4 oil), together with a 2× zoom.” left out

[7] = tested on: normal keratinocytes (NK); assay: E-cadherin retention in the ER (co-localization with calnexin) in TG-treated normal keratinocytes
Procedure: as §2, §5, §6

[8] = tested on: normal keratinocytes (NK); assay: ER volume and cell spreading in TG-treated normal keratinocytes (immunofluorescence, volume quantification); conditions: TG-treated NK compared to untreated NK
Procedure: as §2, §5, §6

[9] = tested on: normal keratinocytes (NK); assay: ER stress response (eIF2α phosphorylation, Western-Blot) in normal keratinocytes; conditions: TG 1 μM, high Ca2+ (1.2 mM) medium
Procedure: as §1, §2
as §3, with “Blots were developed by chemiluminescence (ECL Advance, GE Healthcare or SuperSignal West Dura, Pierce).” left out

Row | Compound | TG-induced eIF2α phosphorylation [1] | F-actin network organisation [2] | cell shape (polygonal phenotype, characteristic of cell-to-cell adhesion) [2] | staining of AJ components (E-cadherin and catenins) at the plasma membrane [2] | plasma membrane localization of E-cadherin ([2]; DK, lower concentration (100 μM)) | E-cadherin expression [3] | SERCA2 expression [3] | ER expansion / perinuclear condensation of the ER [4] | effect on E-cadherin localization ([2]; DK, 500 μM, 24 h pre-treatment) | increase of phospho-eIF2α after exposure to thapsigargin ([1]; DK, TG 1 μM, high Ca2+ (1.2 mM) medium) | IRE1 phosphorylation after exposure to thapsigargin ([1]; DK, TG 1 μM, extent higher than in NK) | spliced, active form of XBP1 mRNA after TG treatment [5] | adherens junction (E-cadherin, catenins, F-actin) organisation [6] | E-cadherin intracellular surface overlapping with the calnexin positive compartment [7] | number of confluent cells per microscopy field [8] | ER volume ([8]; TG 100 nM 30 min) | increase of phospho-eIF2α after exposure to thapsigargin [9]
1 | CCCCN1C[C@H](O)[C@@H](O)[C@H](O)[C@H]1CO [Miglustat, 1,5-(butylimino)-1,5-dideoxy-D-glucitol] | Neither TG-induced eIF2α phosphorylation nor ER expansion were reduced | polymerization of the F-actin network | all cells present a polygonal phenotype | a narrow, intense, continuous pericellular staining of all AJ components at the plasma membrane | increased plasma membrane localization of E-cadherin only in a limited number of cells | neither PBA nor Miglustat increased | neither PBA nor Miglustat increased | Neither TG-induced eIF2α phosphorylation nor ER expansion were reduced | – | – | – | – | – | – | – | – | –
2 | CCCCN1C[C@H](O)[C@@H](O)[C@@H](O)[C@H]1CO [NB-DGJ] | – | – | – | – | – | – | – | – | had not effect | – | – | – | – | – | – | – | –
3 | O=C(O)CCCc1ccccc1 [PBA, 4-phenylbutyric acid] | decreased | cortical bundles of F-actin parallel and closer to the cell membrane | acquired a pronounced polygonal shape | a linear, sharp and more intense pericellular staining of E-cadherin and catenins | – | neither PBA nor Miglustat increased | neither PBA nor Miglustat increased | restored perinuclear condensation of the ER | – | – | – | – | – | – | – | – | –
4 | C/C=C(/C)C(=O)O[C@H]1C(C)=C2[C@H]([C@@H]1OC(=O)CCCCCCC)[C@@](C)(OC(C)=O)C[C@H](OC(=O)CCC)[C@@]1(O)[C@H]2OC(=O)[C@@]1(C)O [TG, thapsigargin] | – | – | – | – | – | – | – | – | – | 2- to 3 fold | increased | increased in DK compared to NK | AJ abnormalities similar to those in DK | significant E-cadherin retention in the ER | always smaller | two-fold increase | 1.5 fold
